In patent US20060134022A1, “Salivary stimulatory compositions and method of use thereof” (priority 2004, published 2006):

Test: Self warming mouthwash temperature increase vs. sulfite concentration on mixing sulfite phase with peroxide phase
Assay type: physicochemical
Conditions: approximate (plus/minus 2 degrees)
Excerpt: The saliva stimulation effectiveness of the solution depends on raising its temperature before use. This may be done by conventional external heating means. Alternatively the sulfate, bisulfate or pyrosulfate may be produced in situ by utilizing a solution of the corresponding sulfite, bisulfite or metabisulfite and adding a solution of an orally acceptable peroxide thereto. The resulting reaction produces excess heat, thus raising the solution temperature. While the amount of peroxide added is not critical, it is desirable to use at least an amount substantially equivalent to the stoichiometric amount need to oxidize the salts in their reduced forms to the higher oxidation state.
Note: Temperatures are in Fahrenheit Degrees and are approximate (plus/minus 2 degrees).
Sulfite Concentrations listed below are final concentration in the mouthwash. Since the final mouthwash is formed from equal amounts of 2 separate phases, the sulfite concentration in the sulfite containing phase is double that in the final mouthwash.
Combine equal amounts of Phase A and Phase B, Just prior to use, to form the final mouth rinse

[1] = 1% final concentration in the mouthwash
[2] = 2% final concentration in the mouthwash
[3] = 4% final concentration in the mouthwash

SMILES | Final Temp. [1] [Fahrenheit Degrees] | Temp. Increase [1] [Fahrenheit Degrees] | Final Temp. [2] [Fahrenheit Degrees] | Temp. Increase [2] [Fahrenheit Degrees] | Final Temp. [3] [Fahrenheit Degrees] | Temp. Increase [3] [Fahrenheit Degrees]
O=S([O-])S(=O)(=O)[O-].[Na+].[Na+] [Sodium Metabisulfite] | 97.3 | 12.1 | 113.2 | 27.2 | 142.0 | 55.9
O=S([O-])[O-].[Na+].[Na+] [Sodium Sulfite] | 98.1 | 10.2 | 110.7 | 21.4 | 133.5 | 43.0
